Source: US11986471B2, “Compounds and methods of use” (Tango Therapeutics, Inc., priority 2018, dated 2024)

What was measured:
PRMT5 [1] = molecular target: T1, PRMT5 (Homo sapiens, UniProt O14744); test: PRMT5 IC50 assay in the presence of SAM as cofactor; assay type: biochemical
T1 construct: purchased Viva (custom protein)
In short: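 MTA-dependent versus SAM-dependent inhibition of human PRMT5 was assessed by IC50; conversion factors of 13.5 and 1.5 gave the corresponding Ki.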

PRMT5 [2] = molecular target: T1, PRMT5; test: PRMT5 IC50 assay in the presence of MTA as cofactor; assay type: biochemical; details: for IC50: PRMT5, MTA as cofactor; for SAM/MTA Ratio: ratio between Ki in the presence of SAM and Ki in the presence of MTA
In short: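 Each compound is tested on PRMT5 in the presence of SAM, of MTA, and without any cofactor. Ki values are then back-calculated using fixed factors of 1.5 (SAM) and 13.5 (MTA), and the two Ki values are compared as a ratio.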

PRMT5 [3] = molecular target: T1, PRMT5; test: PRMT5 IC50 assay with no cofactor; assay type: biochemical; details: read-out: No Co-factor IC50
In short: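 Cofactor-free, SAM and MTA formats; IC50 μM; Ki = IC50/1.5 for SAM, IC50/13.5 for MTA.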

HAP1 MTAP-intact = test: SDMA in-cell western assay, HAP1 MTAP-intact cell line; assay type: cell-based; details: Homo sapiens
In short: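 Symmetric dimethylarginine (SDMA) levels were measured by in-cell western in an isogenic HAP1 pair, one expressing endogenous MTAP and one MTAP-null, and IC50 values were derived for each line. Compounds whose IC50 ratio between the lines is 3-fold or more are classed as MTAP-selective.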

HAP1 MTAP-deleted = test: SDMA in-cell western assay, HAP1 MTAP-deleted cell line; assay type: cell-based; details: for IC50: Homo sapiens, HAP1 MTAP-deleted cell line; for MTAP Intact/Deleted Ratio: IC50 ratio HAP1 MTAP-intact / HAP1 MTAP-deleted
In short: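 Symmetric dimethylarginine (SDMA) levels were measured by in-cell western in MTAP-null HAP1 cells, one half of an MTAP-isogenic pair whose partner line expresses endogenous MTAP. Compound potency is reported as IC50.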

T1 sequence (O14744 whole entry): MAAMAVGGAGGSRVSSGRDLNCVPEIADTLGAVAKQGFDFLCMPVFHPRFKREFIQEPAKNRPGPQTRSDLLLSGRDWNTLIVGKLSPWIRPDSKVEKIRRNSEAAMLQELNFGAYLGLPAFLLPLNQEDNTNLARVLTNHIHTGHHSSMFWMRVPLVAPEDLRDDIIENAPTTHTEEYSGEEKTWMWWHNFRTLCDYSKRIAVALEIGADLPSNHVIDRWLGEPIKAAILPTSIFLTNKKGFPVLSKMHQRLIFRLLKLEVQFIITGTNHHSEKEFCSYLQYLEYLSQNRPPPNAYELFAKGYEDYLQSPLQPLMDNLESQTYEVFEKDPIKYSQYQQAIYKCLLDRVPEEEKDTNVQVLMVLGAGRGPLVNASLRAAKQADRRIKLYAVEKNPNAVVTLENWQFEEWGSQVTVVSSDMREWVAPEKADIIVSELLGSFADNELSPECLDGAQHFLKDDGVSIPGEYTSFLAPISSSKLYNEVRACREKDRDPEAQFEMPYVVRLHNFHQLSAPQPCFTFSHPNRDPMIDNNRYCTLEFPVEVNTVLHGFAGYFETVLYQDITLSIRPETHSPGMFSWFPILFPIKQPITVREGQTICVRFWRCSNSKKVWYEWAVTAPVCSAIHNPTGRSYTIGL
T1 sequence (Q9BQA1 whole entry partner): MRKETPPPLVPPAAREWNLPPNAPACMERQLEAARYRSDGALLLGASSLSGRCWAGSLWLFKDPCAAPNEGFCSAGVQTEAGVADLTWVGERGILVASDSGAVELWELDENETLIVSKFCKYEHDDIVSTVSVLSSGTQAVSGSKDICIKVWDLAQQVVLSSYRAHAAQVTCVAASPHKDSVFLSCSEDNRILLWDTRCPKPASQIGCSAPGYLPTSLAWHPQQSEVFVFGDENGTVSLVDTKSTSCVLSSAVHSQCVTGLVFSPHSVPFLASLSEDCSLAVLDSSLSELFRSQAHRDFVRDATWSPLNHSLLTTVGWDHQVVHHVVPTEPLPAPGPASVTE

Row | IC50 (PRMT5 [1]) | IC50 (PRMT5 [2]) | IC50 (PRMT5 [3]) | IC50 (HAP1 MTAP-intact) | IC50 (HAP1 MTAP-deleted) | SMILES | SAM/MTA Ratio (PRMT5 [2]) | MTAP Intact/Deleted Ratio (HAP1 MTAP-deleted)
1 | 50 to 500 nM | 50 to 500 nM | 500 to 5000 nM | ≥ 10000 nM | 1000 to 10000 nM | CC(C)N1CCN(c2nc(NC3COC3)cc(C(=O)NC[C@H](O)CN3CCc4cc(OCc5cnco5)ccc4C3)n2)CC1 [Compound 296, (S)—N-(2-hydroxy-3-(6-(oxazol-5-ylmethoxy)-3N-dihydroisoquinolin-2(1H)-yl)propyl)-2-(4-isopropylpiperazin-1-yl)-6-(oxetan-3-ylamino)pyrimidine-4-carboxamide] | A (a Ki ratio greater than or equal to 10 fold between the Ki in the presence of SAM and the Ki in the presence of MTA) | C* (an IC50 ratio of less than 3 fold between the IC50 in the HAP1 MTAP-intact cell line and the HAP1 MTAP-deleted cell line)
2 | 50 to 500 nM | 50 to 500 nM | 500 to 5000 nM | ≥ 10000 nM | 1000 to 10000 nM | O=C(NC[C@H](O)CN1CCc2c(ccc(OCc3cnco3)c2Cl)C1)c1cc(NC2COC2)nc(N2CCN(C(=O)C3CC3)CC2)n1 [Compound 297, (S)—N-(3-(5-chloro-6-(oxazol-5-ylmethoxy)-3N-dihydroisoquinolin-2(1H)-yl)-2-hydroxypropyl)-2-(4-(cyclopropanecarbonyl)piperazin-1-yl)-6-(oxetan-3-ylamino)pyrimidine-4-carboxamide] | A (a Ki ratio greater than or equal to 10 fold between the Ki in the presence of SAM and the Ki in the presence of MTA) | C* (an IC50 ratio of less than 3 fold between the IC50 in the HAP1 MTAP-intact cell line and the HAP1 MTAP-deleted cell line)
3 | 500 to 5000 nM | 500 to 5000 nM | ≥ 5000 nM | ≥ 10000 nM | 1000 to 10000 nM | O=C(NC[C@H](O)CN1CCc2c(ccc(OCc3cnco3)c2Cl)C1)c1cc(NC2COC2)nc(N2CCOCC2)n1 [Compound 298, (S)—N-(3-(5-chloro-6-(oxazol-5-ylmethoxy)-3,4-dihydroisoquinolin-2(1H)-yl)-2-hydroxypropyl)-2-morpholino-6-(oxetan-3-ylamino)pyrimidine-4-carboxamide] | A (a Ki ratio greater than or equal to 10 fold between the Ki in the presence of SAM and the Ki in the presence of MTA) | C* (an IC50 ratio of less than 3 fold between the IC50 in the HAP1 MTAP-intact cell line and the HAP1 MTAP-deleted cell line)

Further lines, the molecule ahead of its results:

Row | SMILES | IC50 (PRMT5 [1]) | IC50 (PRMT5 [2]) | IC50 (PRMT5 [3]) | IC50 (HAP1 MTAP-intact) | IC50 (HAP1 MTAP-deleted) | SAM/MTA Ratio (PRMT5 [2]) | MTAP Intact/Deleted Ratio (HAP1 MTAP-deleted)
4 | CCCN(C)c1nc(NC2COC2)cc(C(=O)NC[C@H](O)CN2CCc3cc(OCc4cnco4)ccc3C2)n1 [Compound 294, (S)—N-(2-hydroxy-3-(6-(oxazol-5-ylmethoxy)-3,4-dihydroisoquinolin-2(1H)-yl)propyl)-2-(methyl(propyl)amino)-6-(oxetan-3-ylamino)pyrimidine-4-carboxamide] | 50 to 500 nM | 50 to 500 nM | 500 to 5000 nM | 1000 to 10000 nM | < 1000 nM | A (a Ki ratio greater than or equal to 10 fold between the Ki in the presence of SAM and the Ki in the presence of MTA) | C* (an IC50 ratio of less than 3 fold between the IC50 in the HAP1 MTAP-intact cell line and the HAP1 MTAP-deleted cell line)
5 | COCCN(C)c1nc(NC2COC2)cc(C(=O)NC[C@H](O)CN2CCc3cc(OCc4cnco4)ccc3C2)n1 [Compound 295, (S)—N-(2-hydroxy-3-(6-(oxazol-5-ylmethoxy)-3N-dihydroisoquinolin-2(1H)-yl)propyl)-2-((2-methoxyethyl)(methyl)amino)-6-(oxetan-3-ylamino)pyrimidine-4-carboxamide] | 50 to 500 nM | 50 to 500 nM | 500 to 5000 nM | < 1000 nM | < 1000 nM | A (a Ki ratio greater than or equal to 10 fold between the Ki in the presence of SAM and the Ki in the presence of MTA) | C* (an IC50 ratio of less than 3 fold between the IC50 in the HAP1 MTAP-intact cell line and the HAP1 MTAP-deleted cell line)
